Experiment [1] relates to Wnt activity (Sp5-Luc reporter, TCF/LEF binding sites) in SW480 colon carcinoma cells. Kind of experiment: Screening assay for Wnt activity: Sp5-Luc reporter gene assay in stably transduced SW480 colon carcinoma cells. In kind it is cell-based. Conditions: Homo sapiens; for EC50: overnight incubation, 10-point curve from 10 μM; for inhibition at 10 µM: given where EC50 >10 μM, read-out: percent inhibition at 10 μM. The gist of the method:
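SW480 cells stably transduced with a luciferase reporter driven by an Sp5 promoter of eight TCF/LEF sites were plated at 4,000 cells/well in 1% FBS medium. They were exposed overnight at 37° C to a 10-point 1:3 dilution series from 10 μM (0.1% DMSO). Luminescence was normalized to DMSO for four-parameter EC50, or percent inhibition at 10 μM.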
In general terms: Reporter assays use an easily measured gene product as a stand-in for the process of interest.

Experiment [2] relates to primary human mesenchymal stem cells (hMSCs). Briefly: Induction of chondrogenesis in primary human mesenchymal stem cells (nodule imaging, Rhodamine B / Nile Red). In kind it is cell-based. Conditions: for EC50: concentration required to induce 50% levels of chondrogenesis vs TGF-β3 positive control, read-out: Conc (nM) of 50% TGF-β3 activity; for Emax: maximum chondrogenesis activity relative to TGF-β3 (10 ng/mL) positive control, read-out: Max. Activity as % TGF-β3 activity. On the procedure:
Representative compounds were screened using primary human mesenchymal stem cells (hMSCs) to determine their ability to induce chondrogenesis (process by which cartilage is developed).
Primary human mesenchymal stem cells (hMSCs) were purchased from Lonza (Walkersville, Md.) and expanded in Mesenchymal Stem Cell Growth Media (Lonza). Cells between passage 3 and 6 were used for the experiments.
Each compound was dissolved in DMSO as a 10 mM stock and used to prepare compound source plates. For the 96 well assay, serial dilution (1:3, 6-point dose-response curves from 2700 nM to 10 nM) and compound transfer was performed using the ECHO 550 (Labcyte, Sunnyvale, Calif.) into 96-well clear bottom assay plates (Greiner Bio-One) with appropriate DMSO backfill for a final DMSO concentration of 0.03%. hMSCs were plated at 20,000 cells/well in 250 μL/well Incomplete Chondrogenic Induction Medium (Lonza; DMEM, dexamethasone, ascorbate, insulin-transferrin-selenium [ITS supplement], gentamycin-amphotericin [GA-1000], sodium pyruvate, proline and L-glutamine). TGF-β3 (10 ng/mL) was used as a positive control for differentiation while negative control wells were treated with 75 nL DMSO for normalization and calculating EC50 values. For the 384 well assay, serial dilution (1:3, 8-point dose-response curves from 5000 nM to 2.2 nM) and compound transfer was performed using the ECHO 550 (Labcyte, Sunnyvale, Calif.) into 384-well clear bottom assay plates (Greiner Bio-One) with appropriate DMSO backfill for a final DMSO concentration of 0.03%. hMSCs were plated at 8,000 cells/well in 80 μL/well Incomplete Chondrogenic Induction Medium (Lonza; DMEM, dexamethasone, ascorbate, insulin-transferrin-selenium [ITS supplement], gentamycin-amphotericin [GA-1000], sodium pyruvate, proline and L-glutamine). TGF-β3 (10 ng/mL) was used as a positive control for differentiation while negative control wells were treated with 25 nL DMSO for normalization and calculating EC50 values. Cells were incubated at 37° C. and 5% CO2 for 6 days. To image chondrogenic nodules, the cells were fixed using 4% formaldehyde (Electron Microscopy Sciences), and stained with 2 μg/mL Rhodamine B (Sigma-Aldrich) and 20 μM Nile Red (Sigma-Aldrich) [Johnson K., et. al, A Stem CellBased Approach to Cartilage Repair, Science, (2012), 336(6082), 717-721]. The nodules imaged (25 images per well for 96 well plates and 9 images per well for 384 well plates at 10× magnification) by excitation at 531 nm and emission at 625 nm and quantified using the CellInsight CX5 (Thermo Scientific). Area of nodules in each well was normalized to the average of 3 DMSO treated wells on the same plate using Excel (Microsoft Inc.). The normalized averages (fold change over DMSO) of 2 or 3 replicate wells for each compound concentration were calculated. Due to solubility limitations of some of the compounds, curve fitting was incomplete leading to inaccurate EC50 determinations.
Using TGF-β3 as a positive control, the concentration of representative compounds required to induce 50% levels of chondrogenesis is reported. In addition, the maximum activity of each compound and the respective dose that each compound reached maximum chondrogenesis activity is reported.

Turning to `O=C(Nc1cncc(-c2ccc3[nH]nc(-c4cc5c(N6CCCCC6)cccc5[nH]4)c3c2)c1)C1CC1` [Compound 188, N-(5-(3-(4-(Piperidin-1-yl)-1H-indol-2-yl)-1H-indazol-5-yl)pyridin-3-yl) cyclopropanecarboxamide], the EC50 stood at 195 nM in experiment [1] and 10 nM in experiment [2]. Further, in experiment [2], the Emax is 183%.

Consider `c1cncc(-c2cccc3[nH]c(-c4n[nH]c5ccc(-c6cncc(CN7CCCCC7)c6)cc45)cc23)c1` [Compound 99, 5-(5-(Piperidin-1-ylmethyl)pyridin-3-yl)-3-(4-(pyridin-3-yl)-1H-indol-2-yl)-1H-indazole], for which, in experiment [1], the EC50 came to 5000 nM. Further, in experiment [2], the EC50 stood at 10 nM and the Emax came to 212%.

In turn, `c1ccc2[nH]c(-c3n[nH]c4ccc(-c5cncc(OCCN6CCCC6)c5)cc34)cc2c1` [Compound 686, 3-(1H-Indol-2-yl)-5-(5-(2-(pyrrolidin-1-yl)ethoxy)pyridin-3-yl)-1H-indazole] showed an EC50 in experiment [1] of 1090 nM. Moreover, in experiment [2], the EC50 was found to be 10 nM and the Emax is 213%.

In experiment [1], `CN1CCN(c2cccc3[nH]c(-c4n[nH]c5ccc(-c6cncnc6)cc45)cc23)CC1` [Compound 251, 3-(4-(4-Methylpiperazin-1-yl)-1H-indol-2-yl)-5-(pyrimidin-5-yl)-1H-indazole] returned an EC50 of 1420 nM. Further, in experiment [2], the EC50 stood at 100 nM and the Emax was 165%.

As to `CCC(=O)Nc1cncc(-c2ccc3[nH]nc(-c4cc5c(N6CCCCC6)cccc5[nH]4)c3c2)c1` [Compound 169, N-(5-(3-(4-(Piperidin-1-yl)-1H-indol-2-yl)-1H-indazol-5-yl)pyridin-3-yl) propionamide], the EC50 in experiment [1] was 1400 nM. In addition, in experiment [2], the EC50 is 30 nM and the Emax was determined as 171%.

What is called inhibition is the relative decrease from the control value, in per cent. For `Cc1ccncc1-c1ccc2[nH]nc(-c3cc4c(-c5ccncc5)cccc4[nH]3)c2c1` [Compound 117, 5-(4-Methylpyridin-3-yl)-3-(4-(pyridin-4-yl)-1H-indol-2-yl)-1H-indazole], in experiment [1], the inhibition at 10 µM came to 19.6% and the EC50 is over 10000 nM. In experiment [2], the EC50 stood at 10 nM and the Emax turned out to be 190%.

For `FC1(F)CCN(Cc2cncc(-c3ccc4[nH]nc(-c5cc6c(N7CCCCC7)cccc6[nH]5)c4c3)c2)C1` [Compound 194, 5-(5-((3,3-Difluoropyrrolidin-1-yl)methyl)pyridin-3-yl)-3-(4-(piperidin-1-yl)-1H-indol-2-yl)-1H-indazole], the EC50 in experiment [1] was determined as 750 nM; in experiment [2] it was 30 nM. For the same molecule, the Emax in experiment [2] worked out at 160%.

`c1ccc2[nH]c(-c3n[nH]c4ccc(-c5cncc(CN6CCCCC6)c5)cc34)cc2c1` [Compound 267, 3-(1H-Indol-2-yl)-5-(5-(piperidin-1-ylmethyl)pyridin-3-yl)-1H-indazole] displayed an EC50 in experiment [1] of 675 nM.

With `CN1CCN(c2cccc3[nH]c(-c4n[nH]c5ccc(-c6cncc(NC(=O)CC7CCNCC7)c6)cc45)cc23)CC1` [Compound 669, N-(5-(3-(4-(4-Methylpiperazin-1-yl)-1H-indol-2-yl)-1H-indazol-5-yl)pyridin-3-yl)-2-(piperidin-4-yl)acetamide], in experiment [1], the inhibition at 10 µM was 11.7% and the EC50 was over 10000 nM.

In experiment [1], `CC(C)CC(=O)Nc1cncc(-c2ccc3[nH]nc(-c4cc5ncccc5[nH]4)c3c2)c1` [Compound 506, N-(5-(3-(1H-Pyrrolo[3,2-b]pyridin-2-yl)-1H-indazol-5-yl)pyridin-3-yl)-3-methylbutanamide] returned an EC50 of 86 nM.

In the case of `CN(C)Cc1cncc(-c2ccc3[nH]nc(-c4cc5c(-c6ccc(F)cc6)cccc5[nH]4)c3c2)c1` [Compound 41, 1-(5-(3-(4-(4-Fluorophenyl)-1H-indol-2-yl)-1H-indazol-5-yl)pyridin-3-yl)-N,N-dimethylmethanamine], the EC50 in experiment [1] stood at 165 nM.

For the molecule `CCCC(=O)Nc1cncc(-c2ccc3[nH]nc(-c4cc5c(-c6ccncc6)cccc5[nH]4)c3c2)c1` [Compound 129, N-(5-(3-(4-(Pyridin-4-yl)-1H-indol-2-yl)-1H-indazol-5-yl)pyridin-3-yl) butyramide], the EC50 in experiment [1] turned out to be 600 nM.

Consider `O=C(Nc1cncc(-c2ccc3[nH]nc(-c4cc5ccccc5[nH]4)c3c2)c1)c1ccccc1` [Compound 263, N-(5-(3-(1H-Indol-2-yl)-1H-indazol-5-yl)pyridin-3-yl)benzamide], for which the EC50 in experiment [1] was found to be 380 nM.

In experiment [1], `CC(C)CC(=O)Nc1cncc(-c2ccc3[nH]nc(-c4cc5c(-c6ccsc6)cccc5[nH]4)c3c2)c1` [Compound 282, 3-Methyl-N-(5-(3-(4-(thiophen-3-yl)-1H-indol-2-yl)-1H-indazol-5-yl)pyridin-3-yl)butanamide] came in with an EC50 of 75 nM.

In the case of `CC(C)(C)CC(=O)Nc1cncc(-c2ccc3[nH]nc(-c4cc5c(-c6ccccc6F)cccc5[nH]4)c3c2)c1` [Compound 72, N-(5-(3-(4-(2-Fluorophenyl)-1H-indol-2-yl)-1H-indazol-5-yl)pyridin-3-yl)-3,3-dimethylbutanamide], the EC50 in experiment [1] worked out at 4260 nM.

In turn, `CCCC(=O)Nc1cncc(-c2ccc3[nH]nc(-c4cc5c(-c6cccc(F)c6)cccc5[nH]4)c3c2)c1` [Compound 17, N-(5-(3-(4-(3-Fluorophenyl)-1H-indol-2-yl)-1H-indazol-5-yl)pyridin-3-yl) butyramide] yielded an EC50 in experiment [1] of 125 nM.

Turning to `CN(C)Cc1cncc(-c2ccc3[nH]nc(-c4cc5c(-c6cccc(F)c6)cccc5[nH]4)c3c2)c1` [Compound 13, 1-(5-(3-(4-(3-Fluorophenyl)-1H-indol-2-yl)-1H-indazol-5-yl)pyridin-3-yl)-N,N-dimethylmethanamine], in experiment [1], the inhibition at 10 µM came to 22.5% and the EC50 is over 10000 nM.

Consider `O=C(Nc1cncc(-c2ccc3[nH]nc(-c4cc5ccccc5[nH]4)c3c2)c1)C1CCCCC1` [Compound 275, N-(5-(3-(1H-Indol-2-yl)-1H-indazol-5-yl)pyridin-3-yl) cyclohexanecarboxamide], for which the EC50 in experiment [1] turned out to be 588 nM.

Consider `O=C(Nc1cncc(-c2ccc3[nH]nc(-c4cc5c(-c6ccccn6)cccc5[nH]4)c3c2)c1)c1ccccc1` [Compound 151, N-(5-(3-(4-(Pyridin-2-yl)-1H-indol-2-yl)-1H-indazol-5-yl)pyridin-3-yl) benzamide], for which, in experiment [1], the EC50 came to 150 nM.

`c1cncc(-c2ccc3[nH]nc(-c4cc5c(-c6cccs6)cccc5[nH]4)c3c2)c1` [Compound 340, 5-(Pyridin-3-yl)-3-(4-(thiophen-2-yl)-1H-indol-2-yl)-1H-indazole] came in with an EC50 in experiment [1] of 74 nM.

Regarding `c1ccc(-c2cccc3[nH]c(-c4n[nH]c5ccc(-c6ccncc6)cc45)cc23)nc1` [Compound 158, 3-(4-(Pyridin-2-yl)-1H-indol-2-yl)-5-(pyridin-4-yl)-1H-indazole], the EC50 in experiment [1] worked out at 4120 nM.

On to `Fc1ccc(-c2cccc3[nH]c(-c4n[nH]c5ccc(-c6cncnc6)cc45)cc23)cc1` [Compound 55, 3-(4-(4-Fluorophenyl)-1H-indol-2-yl)-5-(pyrimidin-5-yl)-1H-indazole], for which, in experiment [1], the EC50 stood at 1780 nM.

Molecule `O=C(Nc1cncc(-c2ccc3[nH]nc(-c4cc5ccccc5[nH]4)c3c2)c1)C1CCC1` [Compound 273, N-(5-(3-(1H-Indol-2-yl)-1H-indazol-5-yl)pyridin-3-yl) cyclobutanecarboxamide] returned an EC50 in experiment [1] of 685 nM.

With `O=C(Nc1cncc(-c2ccc3[nH]nc(-c4cc5c(-c6cccc(F)c6)cccc5[nH]4)c3c2)c1)C1CC1` [Compound 20, N-(5-(3-(4-(3-Fluorophenyl)-1H-indol-2-yl)-1H-indazol-5-yl)pyridin-3-yl) cyclopropanecarboxamide], the EC50 in experiment [1] amounted to 100 nM.

(Values after patent publication US10604512B2, “3-(1H-indol-2-yl)-1H-indazoles and therapeutic uses thereof” (Samumed, LLC, priority 2015, dated 2020).)
